One test concerns the target T1, CDK1/Cyclin B1, GST-tag (Homo sapiens, UniProt P06493).
T1 construct: GST
Description: CDK1/Cyclin B1 biochemical phosphorylation assay (Caliper mobility shift). Conditions: apparent IC50; 1.0 mM ATP or ATP Km; 1.5 nM enzyme; 25° C. In a few lines: (§1)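 Caliper electrophoretic separation of substrate and phosphopeptide gave apparent IC50s. Enzymes: CDK1/Cyclin B1 GST-tag 1.5 nM, CDK2/Cyclin E 1.25 nM; ATP 1.0 mM or at Km; 7.5 µM FL-peptide; pH 7.5 HEPES buffer, 1% DMSO; room temperature until 10–20% phosphorylated, then EDTA quench.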

The next test deals with CDK2/Cyclin E (Homo sapiens, UniProt P24941). Description: CDK2/Cyclin E biochemical phosphorylation assay (Caliper mobility shift). Conditions: apparent IC50; 1.0 mM ATP or ATP Km; 1.25 nM enzyme; 25° C.; read-out: CDK2/cyclin E1 IC50. In a few lines:
as §1

Where only a bound is given, the exact number is not on record here.

T1 sequence (P06493 whole entry): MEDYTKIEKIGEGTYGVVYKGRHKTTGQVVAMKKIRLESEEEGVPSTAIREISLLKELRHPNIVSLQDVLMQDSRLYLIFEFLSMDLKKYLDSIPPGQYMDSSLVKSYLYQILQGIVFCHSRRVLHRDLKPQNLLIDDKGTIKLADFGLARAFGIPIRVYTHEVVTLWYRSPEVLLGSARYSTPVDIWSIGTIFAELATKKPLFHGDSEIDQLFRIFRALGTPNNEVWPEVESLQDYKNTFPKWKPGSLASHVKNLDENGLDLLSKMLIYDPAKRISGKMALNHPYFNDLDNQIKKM
T1 sequence (P14635 whole entry partner): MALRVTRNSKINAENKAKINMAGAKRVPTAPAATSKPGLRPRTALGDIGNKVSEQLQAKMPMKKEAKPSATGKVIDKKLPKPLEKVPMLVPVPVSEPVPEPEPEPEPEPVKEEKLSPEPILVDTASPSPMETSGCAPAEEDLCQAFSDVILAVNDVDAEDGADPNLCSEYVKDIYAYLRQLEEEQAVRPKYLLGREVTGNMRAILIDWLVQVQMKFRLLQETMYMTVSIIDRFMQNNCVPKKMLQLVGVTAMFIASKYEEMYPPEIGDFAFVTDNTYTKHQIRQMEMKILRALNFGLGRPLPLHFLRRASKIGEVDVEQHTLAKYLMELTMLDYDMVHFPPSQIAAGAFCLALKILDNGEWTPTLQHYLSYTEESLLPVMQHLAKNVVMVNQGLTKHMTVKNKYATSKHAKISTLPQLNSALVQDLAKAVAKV

`C[C@@H](c1ccc(F)nc1)n1ncc2ncc(Nc3cc(OC(F)F)[nH]n3)nc21` (single isomer, unassigned) [Example 151, (S)-N-(5-(difluoromethoxy)-1H-pyrazol-3-yl)-1-(1-(6-fluoropyridin-3-yl)ethyl)-1H-pyrazolo[3,4-b]pyrazin-6-amine or (R)-N-(5-(difluoromethoxy)-1H-pyrazol-3-yl)-1-(1-(6-fluoropyridin-3-yl)ethyl)-1H-pyrazolo[3,4-b]pyrazin-6-amine]: the IC50 at CDK1/Cyclin B1, GST-tag was not below 500 nM; on CDK2/Cyclin E, not above 10 nM.

Turning to `C[C@@H](O)c1nn(CC2CCOCC2)c2nc(Nc3cc(OC(F)F)[nH]n3)cnc12` (single isomer, unassigned) [Example 175, (R)-1-(6-((5-(difluoromethoxy)-1H-pyrazol-3-yl)amino)-1-((tetrahydro-2H-pyran-4-yl)methyl)-1H-pyrazolo[3,4-b]pyrazin-3-yl)ethan-1-ol or (S)-1-(6-((5-(difluoromethoxy)-1H-pyrazol-3-yl)amino)-1-((tetrahydro-2H-pyran-4-yl)methyl)-1H-pyrazolo[3,4-b]pyrazin-3-yl)ethan-1-ol], the IC50 at CDK1/Cyclin B1, GST-tag was 100 to 500 nM; on CDK2/Cyclin E, not above 10 nM.

For the molecule `CCOc1cc(Nc2cnc3cnn(CC4CCOCC4)c3n2)n[nH]1` [Example 38, N-(5-ethoxy-1H-pyrazol-3-yl)-1-((tetrahydro-2H-pyran-4-yl)methyl)-1H-pyrazolo[3,4-b]pyrazin-6-amine], the IC50 was 100 to 500 nM on CDK1/Cyclin B1, GST-tag and not above 10 nM at CDK2/Cyclin E.

Consider `FC(F)Oc1cc(Nc2cnc3cnn(Cc4cscn4)c3n2)n[nH]1` [Example 52, N-(5-(difluoromethoxy)-1H-pyrazol-3-yl)-1-(thiazol-4-ylmethyl)-1H-pyrazolo[3,4-b]pyrazin-6-amine], for which the IC50 at CDK1/Cyclin B1, GST-tag was not below 500 nM; at CDK2/Cyclin E it was 30 to 100 nM.

Take `COc1cc(Nc2cnc3cnn(C(C)c4cccnn4)c3n2)n[nH]1` (single isomer, unassigned) [Example 33, (R)—N-(5-methoxy-1H-pyrazol-3-yl)-1-(1-(pyridazin-3-yl)ethyl)-1H-pyrazolo[3,4-b]pyrazin-6-amine or (S)—N-(5-methoxy-1H-pyrazol-3-yl)-1-(1-(pyridazin-3-yl)ethyl)-1H-pyrazolo[3,4-b]pyrazin-6-amine]: the IC50 is 100 to 500 nM on CDK1/Cyclin B1, GST-tag and not above 10 nM on CDK2/Cyclin E.

Turning to `FC[C@H](C1CCOCC1)n1ncc2ncc(Nc3cc(OC(F)F)[nH]n3)nc21` (single isomer, unassigned) [Example 183], the IC50 was not below 500 nM at CDK1/Cyclin B1, GST-tag and 30 to 100 nM at CDK2/Cyclin E.

As to `Fc1ccc(Cn2ncc3ncc(Nc4cc(OC(F)F)[nH]n4)nc32)cc1` [Example 40, N-(5-(difluoromethoxy)-1H-pyrazol-3-yl)-1-(4-fluorobenzyl)-1H-pyrazolo[3,4-b]pyrazin-6-amine], the IC50 at CDK1/Cyclin B1, GST-tag is not below 500 nM; on CDK2/Cyclin E, 10 to 20 nM.

Take `[2H]C([2H])(C)n1ncc2ncc(Nc3cc(OC(F)F)[nH]n3)nc21` [Example 225, N-(5-(difluoromethoxy)-1H-pyrazol-3-yl)-1-(ethyl-1,1-d2)-1H-pyrazolo[3,4-b]pyrazin-6-amine]: the IC50 at CDK1/Cyclin B1, GST-tag is not below 500 nM; on CDK2/Cyclin E, 30 to 100 nM.

Take `Cn1cncc1Cn1ncc2ncc(Nc3cc(OC(F)F)[nH]n3)nc21` [Example 131, N-(5-(difluoromethoxy)-1H-pyrazol-3-yl)-1-((1-methyl-1H-imidazol-5-yl)methyl)-1H-pyrazolo[3,4-b]pyrazin-6-amine]: the IC50 on CDK1/Cyclin B1, GST-tag is not below 500 nM; on CDK2/Cyclin E it was 30 to 100 nM.

As to `C[C@@H](c1cnccc1F)n1ncc2ncc(Nc3cc(OC(F)F)[nH]n3)nc21` (single isomer, unassigned) [Example 173, (S)-N-(5-(difluoromethoxy)-1H-pyrazol-3-yl)-1-(1-(4-fluoropyridin-3-yl)ethyl)-1H-pyrazolo[3,4-b]pyrazin-6-amine or (R)-N-(5-(difluoromethoxy)-1H-pyrazol-3-yl)-1-(1-(4-fluoropyridin-3-yl)ethyl)-1H-pyrazolo[3,4-b]pyrazin-6-amine], the IC50 is not below 500 nM on CDK1/Cyclin B1, GST-tag and 20 to 30 nM on CDK2/Cyclin E.

Consider `FC(F)Oc1cc(Nc2cnc3cnn(C[C@@H]4COCCO4)c3n2)n[nH]1` [Example 88, (R)-1-((1,4-dioxan-2-yl)methyl)-N-(5-(difluoromethoxy)-1H-pyrazol-3-yl)-1H-pyrazolo[3,4-b]pyrazin-6-amine], for which the IC50 on CDK1/Cyclin B1, GST-tag is not below 500 nM; at CDK2/Cyclin E it was not above 10 nM.

As for `CC[C@@H](c1cccnc1)n1ncc2ncc(Nc3cc(OC(F)F)[nH]n3)nc21` [Example 94, (S)-N-(5-(difluoromethoxy)-1H-pyrazol-3-yl)-1-(1-(pyridin-3-yl)propyl)-1H-pyrazolo[3,4-b]pyrazin-6-amine], the IC50 was not below 500 nM on CDK1/Cyclin B1, GST-tag and not above 10 nM on CDK2/Cyclin E.

Consider `COc1cc(Nc2cnc3cnn(C[C@@H]4CCCOC4)c3n2)n[nH]1` [Example 139, (S)-N-(5-methoxy-1H-pyrazol-3-yl)-1-((tetrahydro-2H-pyran-3-yl)methyl)-1H-pyrazolo[3,4-b]pyrazin-6-amine], for which the IC50 was not below 500 nM on CDK1/Cyclin B1, GST-tag and 10 to 20 nM at CDK2/Cyclin E.

For `C[C@]1(Cn2ncc3ncc(Nc4cc(OC(F)F)[nH]n4)nc32)CCOC1` (single isomer, unassigned) [Example 166, (S)-N-(5-(difluoromethoxy)-1H-pyrazol-3-yl)-1-((3-methyltetrahydrofuran-3-yl)methyl)-1H-pyrazolo[3,4-b]pyrazin-6-amine or (R)-N-(5-(difluoromethoxy)-1H-pyrazol-3-yl)-1-((3-methyltetrahydrofuran-3-yl)methyl)-1H-pyrazolo[3,4-b]pyrazin-6-amine], the IC50 at CDK1/Cyclin B1, GST-tag is 100 to 500 nM; at CDK2/Cyclin E it was not above 10 nM.

For the molecule `N#C[C@@]1(Cn2ncc3ncc(Nc4cc(OC(F)F)[nH]n4)nc32)CCOC1` (single isomer, unassigned) [Example 170, (R)-3-((6-((5-(difluoromethoxy)-1H-pyrazol-3-yl)amino)-1H-pyrazolo[3,4-b]pyrazin-1-yl)methyl)tetrahydrofuran-3-carbonitrile or (S)-3-((6-((5-(difluoromethoxy)-1H-pyrazol-3-yl)amino)-1H-pyrazolo[3,4-b]pyrazin-1-yl)methyl)tetrahydrofuran-3-carbonitrile], the IC50 on CDK1/Cyclin B1, GST-tag was not below 500 nM; on CDK2/Cyclin E, more than 100 nM.

For the molecule `C[C@]1(Cn2ncc3ncc(Nc4cc(OC(F)F)[nH]n4)nc32)CCOC1` (single isomer, unassigned) [Example 165, (R)-N-(5-(difluoromethoxy)-1H-pyrazol-3-yl)-1-((3-methyltetrahydrofuran-3-yl)methyl)-1H-pyrazolo[3,4-b]pyrazin-6-amine or (S)-N-(5-(difluoromethoxy)-1H-pyrazol-3-yl)-1-((3-methyltetrahydrofuran-3-yl)methyl)-1H-pyrazolo[3,4-b]pyrazin-6-amine], the IC50 at CDK1/Cyclin B1, GST-tag was not below 500 nM; on CDK2/Cyclin E, 30 to 100 nM.

Take `Fc1cncc(Cn2ncc3ncc(Nc4cc(OC(F)F)[nH]n4)nc32)c1` [Example 42, N-(5-(difluoromethoxy)-1H-pyrazol-3-yl)-1-((5-fluoropyridin-3-yl)methyl)-1H-pyrazolo[3,4-b]pyrazin-6-amine]: the IC50 is not below 500 nM on CDK1/Cyclin B1, GST-tag and 20 to 30 nM on CDK2/Cyclin E.

On to `CC(C1CCCOC1)n1ncc2ncc(Nc3cc(OC(F)F)[nH]n3)nc21` (single isomer, unassigned) [Example 218], for which the IC50 on CDK1/Cyclin B1, GST-tag was less than 100 nM; at CDK2/Cyclin E, not above 10 nM.

Consider `COc1cc(Nc2cnc3cnn(C[C@H]4C[C@@H](C)O[C@@H](C)C4)c3n2)n[nH]1` [Example 66, 1-(((2R,4r,6S)-2,6-dimethyltetrahydro-2H-pyran-4-yl)methyl)-N-(5-methoxy-1H-pyrazol-3-yl)-1H-pyrazolo[3,4-b]pyrazin-6-amine], for which the IC50 was less than 100 nM at CDK1/Cyclin B1, GST-tag and not above 10 nM on CDK2/Cyclin E.

For `N#C[C@H]1C[C@H](Cn2ncc3ncc(Nc4cc(OC(F)F)[nH]n4)nc32)C1` (single isomer, unassigned) [Example 190, (1r,3r)-3-((6-((5-(difluoromethoxy)-1H-pyrazol-3-yl)amino)-1H-pyrazolo[3,4-b]pyrazin-1-yl)methyl)cyclobutane-1-carbonitrile or (1s,3s)-3-((6-((5-(difluoromethoxy)-1H-pyrazol-3-yl)amino)-1H-pyrazolo[3,4-b]pyrazin-1-yl)methyl)cyclobutane-1-carbonitrile], the IC50 on CDK1/Cyclin B1, GST-tag was not below 500 nM; on CDK2/Cyclin E, more than 100 nM.

For `C[C@@H](c1ccc(F)cc1)n1ncc2ncc(Nc3cc(OC(F)F)[nH]n3)nc21` [Example 47, (S)-N-(5-(difluoromethoxy)-1H-pyrazol-3-yl)-1-(1-(4-fluorophenyl)ethyl)-1H-pyrazolo[3,4-b]pyrazin-6-amine], the IC50 at CDK1/Cyclin B1, GST-tag is not below 500 nM; at CDK2/Cyclin E it was not above 10 nM.

On to `O[C@H]1C[C@H](n2ncc3ncc(Nc4cc(OC(F)F)[nH]n4)nc32)C1` (single isomer, unassigned) [Example 146, (1s,3s)-3-(6-((5-(difluoromethoxy)-1H-pyrazol-3-yl)amino)-1H-pyrazolo[3,4-b]pyrazin-1-yl)cyclobutan-1-ol or (1r,3r)-3-(6-((5-(difluoromethoxy)-1H-pyrazol-3-yl)amino)-1H-pyrazolo[3,4-b]pyrazin-1-yl)cyclobutan-1-ol], for which the IC50 was not below 500 nM at CDK1/Cyclin B1, GST-tag and 20 to 30 nM at CDK2/Cyclin E.

As to `Fc1cccc(Cn2ncc3ncc(Nc4cc(OC(F)F)[nH]n4)nc32)c1` [Example 39, N-(5-(difluoromethoxy)-1H-pyrazol-3-yl)-1-(3-fluorobenzyl)-1H-pyrazolo[3,4-b]pyrazin-6-amine], the IC50 on CDK1/Cyclin B1, GST-tag is not below 500 nM; at CDK2/Cyclin E it was 20 to 30 nM.

(Values after patent US11970498B2, “CDK2 inhibitors” (BLUEPRINT MEDICINES CORPORATION, priority 2021, dated 2024).)
